Measurements reported in US10227331B2 (priority 2015, dated 2019).
Values after ≈ are worked out from the molar mass of the structure shown.

How the values were obtained:
Format in all cases: cell-based, Pseudomonas aeruginosa
[1] = tested on: MB 5919 (OprD+, efflux+)
[2] = tested on: MB 5890 (OprD+, efflux-)
[3] = tested on: MB 9799 (MB 5890 Trans IMP1 plasmid, efflux-); conditions: CL 5673 (IMP-1) plasmid
[4] = tested on: MB 9861 (MB 5919 Trans pFIp-Vim1 plasmid, efflux+)
[5] = tested on: MB 9862 (MB 5890 Trans pFIp-Vim1, efflux-)
[6] = tested on: MB 5919 Trans pFIp-Vim2 plasd (efflux+)
[7] = tested on: MB 5890 Trans pFIp-Vim2 plasd (efflux-)

Structure (SMILES)	MIC [1]	MIC [2]	MIC [3]	MIC [4]	MIC [5]	MIC [6]	MIC [7]
CC(C)(O/N=C(\C(=O)N[C@@H]1C(=O)N2C(C(=O)[O-])=C(C[n+]3ccccc3)CS[C@H]12)c1csc(N)n1)C(=O)O [CAZ, ceftazidime]	1 µg/mL (≈ 1.83 µM)	0.5 µg/mL (≈ 0.915 µM)	256 µg/mL (≈ 468 µM)	>256 µg/mL	>256 µg/mL	128 µg/mL (≈ 234 µM)	64 µg/mL (≈ 117 µM)
C[C@@H](O)[C@H]1C(=O)N2C(C(=O)O)=C(SCCN=CN)C[C@H]12 [Imipenem, imipenem]	4 µg/mL (≈ 13.4 µM)	2 µg/mL (≈ 6.68 µM)	32 µg/mL (≈ 107 µM)	>64 µg/mL	64 µg/mL (≈ 214 µM)	>64 µg/mL	32 µg/mL (≈ 107 µM)
C[C@@H](O)[C@H]1C(=O)N2C(C(=O)O)=C(S[C@@H]3CN[C@H](C(=O)N(C)C)C3)[C@H](C)[C@H]12 [Meropenem, meropenem]	2 µg/mL (≈ 5.22 µM)	0.5 µg/mL (≈ 1.3 µM)	64 µg/mL (≈ 167 µM)	>64 µg/mL	64 µg/mL (≈ 167 µM)	>64 µg/mL	32 µg/mL (≈ 83.4 µM)
CCN1CCN(C(=O)N[C@@H](C(=O)N[C@@H]2C(=O)N3[C@@H]2SC(C)(C)[C@@H]3C(=O)O)c2ccccc2)C(=O)C1=O [Pipercillin, piperacillin]	2 µg/mL (≈ 3.86 µM)	1 µg/mL (≈ 1.93 µM)	4 µg/mL (≈ 7.73 µM)	>256 µg/mL	128 µg/mL (≈ 247 µM)	>256 µg/mL	128 µg/mL (≈ 247 µM)
